Patent US12173018B2, “Penicillin-binding protein inhibitors” (priority 2018, dated 2024)
Like-named read-outs stand apart in the source and are kept apart here.

Key:
E. coli ATCC 25922 = experiment: Broth microdilution MIC, E. coli ATCC 25922; type: cell-based; settings: Escherichia coli
In short: (§1)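 Following CLSI guidance, growth inhibition is measured in Mueller-Hinton broth with divalent cations. Inoculum 5×10^5 CFU/mL; incubation 16-20 hours, 37° C; endpoint is visual absence of growth.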

E. coli AG100 = experiment: Broth microdilution MIC, E. coli AG100 (wild-type parent); type: cell-based; settings: Escherichia coli; wild-type parent E. coli AG100, broth microdilution; read-out: MIC E. coli AG100
In short: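 Broth microdilution in cation-supplemented Mueller-Hinton broth, 2-fold serial compound dilutions, inoculum 5×10^5 CFU/mL from 3-5 h log culture.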

E. coli 901C = experiment: microbe, parasite or virus in culture; type: cell-based; settings: Escherichia coli; hyper-permeable E. coli 901C, broth microdilution; read-out: MIC E. coli 901C
In short: as §1

E. coli AG100A = experiment: microbe, parasite or virus in culture; type: cell-based; settings: Escherichia coli, read-out: MIC E. coli AG100A
In short: as §1

E. coli D22 = experiment: microbe, parasite or virus in culture; type: cell-based; settings: Escherichia coli; hyper-permeable E. coli D22, broth microdilution; read-out: MIC E. coli D22
In short: as §1

K. pneumoniae SI-117 = experiment: microbe, parasite or virus in culture; type: cell-based; settings: Klebsiella pneumoniae, SI117, read-out: MIC K. pneumoniae SI-117
In short: as §1

K. pneumoniae UMM = experiment: microbe, parasite or virus in culture; type: cell-based; settings: Klebsiella pneumoniae; K. pneumoniae UMM producing SHV-5 and KPC-2; read-out: MIC K. pneumoniae UMM
In short: as §1

[1] = test system: P. aeruginosa (ΔmexAB-oprM); experiment: microbe, parasite or virus in culture; type: cell-based; settings: Pseudomonas aeruginosa, read-out: MIC P. aeruginosa ΔmexAB-OprM
In short: as §1

P. aeruginosa ATCC 35151 = experiment: microbe, parasite or virus in culture; type: cell-based; settings: Pseudomonas aeruginosa, ATCC35151; hyper-permeable P. aeruginosa ATCC 35151; read-out: MIC P. aeruginosa ATCC 35151
In short: as §1

K. pneumoniae 848844 = experiment: microbe, parasite or virus in culture; type: cell-based, Klebsiella pneumoniae; settings: Klebsiella pneumoniae; K. pneumoniae 848844 producing SHV-11 and KPC-2; read-out: MIC K. pneumoniae 848844
In short: as §1

P. aeruginosa ATCC 27853 = experiment: Broth microdilution MIC, P. aeruginosa ATCC 27853; type: cell-based; settings: Pseudomonas aeruginosa
Experimental: To determine the ability of test compounds to potentiate the inhibition of the growth of bacterial strains, classic cell based broth microdilution minimum inhibitory concentration (MIC) assays were employed. MIC assays are performed according to CLSI methods except where otherwise noted (CLSI, 2011 and CLSI, 2009). The reference type strain E. coli ATCC 25922, the wild-type parent strain E. coli AG100, the hyper-permeable E. coli 901C and E. coli D22 and the E. coli AG100A strain lacking the acrAB efflux pump encoding genes were used to determine the ability of the PBP inhibitors to penetrate the outer membrane of gram-negative bacteria and inhibit bacterial growth. […] The P. aeruginosa PAO1, P. aeruginosa ATCC 27853 and A. baumannii ATCC 19606, along with the hyper-permeable P. aeruginosa ATCC 35151 and an engineered efflux pump-compromised strain of P. aeruginosa (ΔmexAB-oprM) were used to determine the ability of PBP inhibitors to penetrate the outer membrane of P. aeruginosa and A. baumannii and assess antibacterial activity against these important gram-negative organisms.
Briefly, cryo-preserved bacterial cultures of challenge strains are streaked for isolation on appropriate agar medium, in this case Mueller Hinton II agar. Following incubation to allow growth of the colonies, plates are sealed with parafilm and stored refrigerated for up to two weeks. For preparation of assay inoculum and to ensure low variability, at least 5 colonies are picked from the agar plates with an inoculating loop and aseptically transferred to a culture tube containing 3 mL of Mueller-Hinton Broth (supplemented with divalent cations to required levels based on Manufacturers' certification). The broth culture is grown for 3-5 hours at 37° C. with shaking at 200 rpm. Meanwhile, 2-fold serial dilutions of test compounds are conducted in a 96 well plate with a final volume of 75 μL per well at 2-fold the final desired concentration. After the dilution plates are set up the growing cultures are then diluted in a cuvette containing MH II broth and the optical density is measured at 600 nm. The Inoculum is diluted such that 75 μL of this culture in Mueller-Hinton Broth results in a starting bacterial concentration of 5×10^5 CFU/mL when added to the dilution plates. The plates are incubated for 16-20 hours at 37° C. The MIC values are read visually as the lowest concentration well with no bacterial growth.

A. baumannii ATCC 19606 = experiment: Broth microdilution MIC, A. baumannii ATCC 19606; type: cell-based; settings: Acinetobacter baumannii
In short: as §1

E. coli PBP3 = E. coli PBP3 (Escherichia coli (strain K12), UniProt P0AD68); experiment: E. coli PBP3 Bocillin-FL fluorescence polarization competition binding assay
E. coli PBP3, sequence (P0AD68 whole entry): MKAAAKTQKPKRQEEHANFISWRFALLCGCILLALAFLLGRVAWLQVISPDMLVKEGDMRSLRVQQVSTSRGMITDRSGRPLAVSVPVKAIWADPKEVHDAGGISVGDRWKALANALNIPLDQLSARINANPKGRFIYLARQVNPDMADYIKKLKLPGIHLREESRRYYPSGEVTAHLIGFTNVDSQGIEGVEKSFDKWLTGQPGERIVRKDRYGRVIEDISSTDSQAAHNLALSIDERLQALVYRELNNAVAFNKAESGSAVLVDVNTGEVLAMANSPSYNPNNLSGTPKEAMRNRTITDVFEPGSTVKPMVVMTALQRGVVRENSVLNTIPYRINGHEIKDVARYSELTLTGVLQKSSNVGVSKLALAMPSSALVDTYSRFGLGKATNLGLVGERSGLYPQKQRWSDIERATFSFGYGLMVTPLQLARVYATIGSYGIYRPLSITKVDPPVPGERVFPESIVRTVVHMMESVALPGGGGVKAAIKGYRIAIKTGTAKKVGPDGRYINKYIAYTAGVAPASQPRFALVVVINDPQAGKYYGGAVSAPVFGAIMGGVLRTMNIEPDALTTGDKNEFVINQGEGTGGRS
In short: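 Polarization at 490/520 nm was monitored for 60 minutes in pH 8.0 Hepes buffer containing 300 mM NaCl and 5% glycerol, with compound spanning 0–1000 μM.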

[2] = ATCC25922, read-out: MIC E. coli 25922
[3] = ATCC27853, read-out: MIC P. aeruginosa ATCC 27853
[4] = ATCC19606, read-out: MIC A. baumannii ATCC 19606
[5] = ATCC25922, E. coli ATCC 25922, broth microdilution, read-out: MIC E. coli 25922
[6] = ATCC27853, P. aeruginosa ATCC 27853, broth microdilution, read-out: MIC P. aeruginosa ATCC 27853
[7] = ATCC19606, A. baumannii ATCC 19606, broth microdilution, read-out: MIC A. baumannii ATCC 19606

| Structure (SMILES) | MIC (E. coli ATCC 25922; [2]) [µg/mL] | MIC (E. coli AG100) [µg/mL] | MIC (E. coli 901C) [µg/mL] | MIC (E. coli AG100A) [µg/mL] | MIC (E. coli D22) [µg/mL] | MIC (K. pneumoniae SI-117) [µg/mL] | MIC (K. pneumoniae UMM) [µg/mL] | MIC [1] [µg/mL] | MIC (P. aeruginosa ATCC 35151) [µg/mL] | MIC (K. pneumoniae 848844) [µg/mL] | MIC (P. aeruginosa ATCC 27853; [3]) [µg/mL] | MIC (A. baumannii ATCC 19606; [4]) [µg/mL] | EC50 (E. coli PBP3; fluorescence polarization competition binding with Bocillin-FL, read-out: E. coli K12 PBP3 Potency) [µM] | MIC (E. coli ATCC 25922; [5]) [µg/mL] | MIC (P. aeruginosa ATCC 27853; [6]) [µg/mL] | MIC (A. baumannii ATCC 19606; [7]) [µg/mL] | EC50 (E. coli PBP3) [µM] |
| --- | --- | --- | --- | --- | --- | --- | --- | --- | --- | --- | --- | --- | --- | --- | --- | --- | --- |
| CC(=O)NCCN1CCN(C(=O)NC(C(=O)N[C@H]2Cc3ccc(F)c(C(=O)O)c3OB2O)c2ccc(O)c(O)c2Cl)C(=O)C1=O (stereo partly drawn) [Example 243, (3R)-3-(2-(4-(2-acetamidoethyl)-2,3-dioxopiperazine-1-carboxamido)-2-(2-chloro-3,4-dihydroxyphenyl)acetamido)-7-fluoro-2-hydroxy-3,4-dihydro-2H-benzo[e][1,2]oxaborinine-8-carboxylic acid] | 8 to 16 | 2 to 4 | 0.5 to 1 | 0.5 to 1 | 2 to 4 | 2 to 4 | 2 to 4 | < 0.25 | < 0.25 | 2 to 4 | < 0.25 | 0.5 to 1 |  |  |  |  |  |
| O=C(O)CN1CCN(C(=O)NC(C(=O)N[C@H]2Cc3cccc(C(=O)O)c3OB2O)c2ccc(O)c(O)c2Cl)C(=O)C1=O (stereo partly drawn) [Example 249, (3R)-3-(2-(4-(carboxymethyl)-2,3-dioxopiperazine-1-carboxamido)-2-(2-chloro-3,4-dihydroxyphenyl)acetamido)-2-hydroxy-3,4-dihydro-2H-benzo[e][1,2]oxaborinine-8-carboxylic acid] | 32 to 64 | 8 to 16 | 2 to 4 | 8 to 16 | 8 to 16 | 8 to 16 | 8 to 16 | < 0.25 | < 0.25 | 2 to 4 | 0.5 to 1 | 0.5 to 1 |  |  |  |  |  |
| CCN1CC(C)(C)N(C(=O)NC(C(=O)N[C@H]2Cc3cccc(C(=O)O)c3OB2O)c2ncc(O)cc2F)C(=O)C1=O (stereo partly drawn) [Example 245, (3R)-3-(2-(4-ethyl-2,2-dimethyl-5,6-dioxopiperazine-1-carboxamido)-2-(3-fluoro-5-hydroxypyridin-2-yl)acetamido)-2-hydroxy-3,4-dihydro-2H-benzo[e][1,2]oxaborinine-8-carboxylic acid] | > 128 | > 128 | 8 to 16 | 32 to 64 | > 128 | > 128 | > 128 | > 128 | 32 to 64 | > 128 | > 128 | > 128 |  |  |  |  |  |
| CCN1C[C@H](CCN)N(C(=O)NC(C(=O)N[C@H]2Cc3cccc(C(=O)O)c3OB2O)c2ncc(O)cc2F)C(=O)C1=O (stereo partly drawn) [Example 240, (3R)-3-(2-((S)-6-(2-aminoethyl)-4-ethyl-2,3-dioxopiperazine-1-carboxamido)-2-(3-fluoro-5-hydroxypyridin-2-yl)acetamido)-2-hydroxy-3,4-dihydro-2H-benzo[e][1,2]oxaborinine-8-carboxylic acid] | > 128 | > 128 | 8 to 16 | 8 to 16 | 8 to 16 | > 128 | > 128 | > 128 | 8 to 16 | > 128 | > 128 | > 128 |  |  |  |  |  |
| C[C@H]1CN(CCN)C(=O)C(=O)N1C(=O)NC(C(=O)N[C@H]1Cc2cccc(C(=O)O)c2OB1O)c1ccc(O)c(O)c1Cl (stereo partly drawn) [Example 248, (3R)-3-(2-((S)-4-(2-aminoethyl)-6-methyl-2,3-dioxopiperazine-1-carboxamido)-2-(2-chloro-3,4-dihydroxyphenyl)acetamido)-2-hydroxy-3,4-dihydro-2H-benzo[e][1,2]oxaborinine-8-carboxylic acid] | 8 to 16 | 2 to 4 | 0.5 to 1 | 0.5 to 1 | 2 to 4 | 2 to 4 | 2 to 4 | < 0.25 | < 0.25 | 2 to 4 | 32 to 64 | 0.5 to 1 |  |  |  |  |  |
| CCN1CCN(C(=O)N[C@@H](C(=O)N[C@H]2Cc3ccc(F)c(C(=O)O)c3OB2O)c2c(F)cc(O)c(O)c2Cl)C(=O)C1=O [Example 251, (R)-3-((R)-2-(2-chloro-6-fluoro-3,4-dihydroxyphenyl)-2-(4-ethyl-2,3-dioxopiperazine-1-carboxamido)acetamido)-7-fluoro-2-hydroxy-3,4-dihydro-2H-benzo[e][1,2]oxaborinine-8-carboxylic acid] | 2 to 4 | 0.5 to 1 | 0.5 to 1 | 0.5 to 1 | 0.5 to 1 | 2 to 4 | 0.5 to 1 | < 0.25 | < 0.25 | 2 to 4 | 0.5 to 1 | 0.5 to 1 |  |  |  |  |  |
| CCN1CCN(C(=O)NC(C(=O)N[C@H]2Cc3cccc(C(=O)O)c3OB2O)c2ccc(O)c([N+](=O)[O-])c2)C(=O)C1=O (stereo partly drawn) [Example 247, (3R)-3-(2-(4-ethyl-2,3-dioxopiperazine-1-carboxamido)-2-(4-hydroxy-3-nitrophenyl)acetamido)-2-hydroxy-3,4-dihydro-2H-benzo[e][1,2]oxaborinine-8-carboxylic acid] |  | 32 to 64 | < 0.25 | 2 to 4 | 2 to 4 | > 128 | > 128 | 8 to 16 | 0.5 to 1 |  |  |  | < 30 | 32 to 64 | > 128 | > 128 |  |
| CCN1CCN(C(=O)NC(C(=O)N[C@H]2Cc3cccc(C(=O)O)c3OB2O)c2ncc(C(N)=O)cc2F)C(=O)C1=O (stereo partly drawn) [Example 246, (3R)-3-(2-(5-carbamoyl-3-fluoropyridin-2-yl)-2-(4-ethyl-2,3-dioxopiperazine-1-carboxamido)acetamido)-2-hydroxy-3,4-dihydro-2H-benzo[e][1,2]oxaborinine-8-carboxylic acid] |  | > 128 | 2 to 4 | 32 to 64 | 32 to 64 | > 128 | > 128 | 32 to 64 | 2 to 4 |  |  |  |  | > 128 | > 128 | > 128 | 30 to 500 |
